Assay results taken from patent US20250147039A1, “Compounds for complexation of rare earth elements and/or s-, p-, d- block metals, their coordination compounds, peptide conjugates, method of their preparation and use thereof” (USTAV ORGANICKE CHEMIE A BIOCHEMIE AV CR V.V.I., priority 2021, published 2025).

Legend:
[1] = Formation of 1,5-cz-[M(Lig)] from Lig and M^III ions (metal dependent click-zip) (Charts 4, 5); format: physicochemical; conditions: MOPS/NaOH buffer pH 7.0, TD728, TD827 in 50% i-PrOH; for conversion to 1,5-cz-[M(Lig)], Y^III: TD714 sum of two diastereoisomers
[2] = Formation of 1,5-cz-[Ln(Lig)] from Lig and Ln^III ions (metal dependent click-zip), MOPS/NaOH buffer pH 7.0, analytical HPLC (Charts 1, 2); conditions: MOPS/NaOH buffer pH 7.0

conversion to 1,5-cz-[M(Lig)], Sc^III ([1]; 1 week at 80° C.) | conversion to 1,5-cz-[M(Lig)], Y^III ([1]; 1 week at 80° C.) | conversion to 1,5-cz-[M(Lig)], Sc^III ([1]; 1 hour at 80° C.) | conversion to 1,5-cz-[M(Lig)], Y^III ([1]; 1 hour at 80° C.) | conversion to 1,5-cz-[Ln(Lig)], Ce^III ([2]; after 1 week at 80° C.) | conversion to 1,5-cz-[Ln(Lig)], Ce^III ([2]; after 1 hour at 80° C.) | conversion to 1,5-cz-[Ln(Lig)], Dy^III ([2]; after 1 week at 80° C.) | conversion to 1,5-cz-[Ln(Lig)], Dy^III ([2]; after 1 hour at 80° C.) | conversion to 1,5-cz-[Ln(Lig)], Er^III ([2]; after 1 week at 80° C.) | conversion to 1,5-cz-[Ln(Lig)], Er^III ([2]; after 1 hour at 80° C.) | conversion to 1,5-cz-[Ln(Lig)], Eu^III ([2]; after 1 week at 80° C.) | conversion to 1,5-cz-[Ln(Lig)], Eu^III ([2]; after 1 hour at 80° C.) | conversion to 1,5-cz-[Ln(Lig)], Gd^III ([2]; after 1 week at 80° C.) | conversion to 1,5-cz-[Ln(Lig)], Gd^III ([2]; after 1 hour at 80° C.) | conversion to 1,5-cz-[Ln(Lig)], Ho^III ([2]; after 1 week at 80° C.) | conversion to 1,5-cz-[Ln(Lig)], Ho^III ([2]; after 1 hour at 80° C.) | conversion to 1,5-cz-[Ln(Lig)], La^III ([2]; after 1 week at 80° C.) | conversion to 1,5-cz-[Ln(Lig)], La^III ([2]; after 1 hour at 80° C.) | conversion to 1,5-cz-[Ln(Lig)], Lu^III ([2]; after 1 week at 80° C.) | conversion to 1,5-cz-[Ln(Lig)], Lu^III ([2]; after 1 hour at 80° C.) | Structure (SMILES) | other results
0% | 27% | 0% | 17% | 0% | 20% | 18% | 13% | 32% | 25% | 3% | 4% | 11% | 4% | 30% | 17% | 0% | 24% | 34% | 26% | C#Cc1cccc(CN2CCN(CC(=O)NCC(=O)O)CCN(Cc3cc(-c4ccccc4)cc(CN=[N+]=[N-])n3)CCN(CC(=O)NCC(=O)O)CC2)n1 [TD778] | conversion to 1,5-cz-[Ln(Lig)], Nd^III ([2]; after 1 week at 80° C.): 0%; conversion to 1,5-cz-[Ln(Lig)], Nd^III ([2]; after 1 hour at 80° C.): 9%; conversion to 1,5-cz-[Ln(Lig)], Pr^III ([2]; after 1 week at 80° C.): 0%; conversion to 1,5-cz-[Ln(Lig)], Pr^III ([2]; after 1 hour at 80° C.): 13%; conversion to 1,5-cz-[Ln(Lig)], Sm^III ([2]; after 1 week at 80° C.): 1%; conversion to 1,5-cz-[Ln(Lig)], Sm^III ([2]; after 1 hour at 80° C.): 4%; conversion to 1,5-cz-[Ln(Lig)], Tb^III ([2]; after 1 week at 80° C.): 15%; conversion to 1,5-cz-[Ln(Lig)], Tb^III ([2]; after 1 hour at 80° C.): 9%; conversion to 1,5-cz-[Ln(Lig)], Tm^III ([2]; after 1 week at 80° C.): 31%; conversion to 1,5-cz-[Ln(Lig)], Tm^III ([2]; after 1 hour at 80° C.): 31%; conversion to 1,5-cz-[Ln(Lig)], Yb^III ([2]; after 1 week at 80° C.): 27%; conversion to 1,5-cz-[Ln(Lig)], Yb^III ([2]; after 1 hour at 80° C.): 30%
16% | 22% | 0% | 3% | 0% | 0% | 17% | 2% | 39% | 6% | 5% | 1% | 5% | 1% | 23% | 4% | 0% | 0% | 83% | 18% | [N-]=[N+]=NCc1cccc(CN2CCN(CC(=O)O)CCN(Cc3cccc(C#CI)n3)CCN(CC(=O)O)CC2)n1 [TD1204] | conversion to 1,5-cz-[Ln(Lig)], Nd^III ([2]; after 1 week at 80° C.): 1%; conversion to 1,5-cz-[Ln(Lig)], Nd^III ([2]; after 1 hour at 80° C.): 0%; conversion to 1,5-cz-[Ln(Lig)], Pr^III ([2]; after 1 week at 80° C.): 0%; conversion to 1,5-cz-[Ln(Lig)], Pr^III ([2]; after 1 hour at 80° C.): 0%; conversion to 1,5-cz-[Ln(Lig)], Sm^III ([2]; after 1 week at 80° C.): 4%; conversion to 1,5-cz-[Ln(Lig)], Sm^III ([2]; after 1 hour at 80° C.): 1%; conversion to 1,5-cz-[Ln(Lig)], Tb^III ([2]; after 1 week at 80° C.): 10%; conversion to 1,5-cz-[Ln(Lig)], Tb^III ([2]; after 1 hour at 80° C.): 2%; conversion to 1,5-cz-[Ln(Lig)], Tm^III ([2]; after 1 week at 80° C.): 62%; conversion to 1,5-cz-[Ln(Lig)], Tm^III ([2]; after 1 hour at 80° C.): 11%; conversion to 1,5-cz-[Ln(Lig)], Yb^III ([2]; after 1 week at 80° C.): 76%; conversion to 1,5-cz-[Ln(Lig)], Yb^III ([2]; after 1 hour at 80° C.): 15%
